Laboratory results: EP2474542A1 (priority 2010, dated 2012)
Where two headings read alike, the source gives them in different places.

Key:
[1] = logP determination (HPLC/MS characterisation, HCOOH); type: physicochemical
Phytophthora infestans = type: in vivo; conditions: preventive, young tomato plants sprayed, 100ppm of active ingredient, evaluated 7 days after the inoculation; 0% = untreated control, 100% = no disease
[2] = HCOOH, HPLC/MS, read-out: logP(HCOOH)

SMILES	chromatographic logP [1, 2]	chromatographic logP ([1]; Table 1, read-out: log P)	Eff.% (Phytophthora infestans) [%]
Cn1nnnc1/C(=N\OCc1csc(NC(=O)O/N=C/c2ccccc2)n1)c1ccccc1 [Example 1, ({4-[({[(Z)-(1-methyl-1H-tetrazol-5-yl)(phenyl)methylene]amino}oxy)methyl]-1,3-thiazol-2-yl}amino)({[(E)-phenylmethylene]amino}oxy)methanone]	3.39	3.13	95
Cn1nnnc1/C(=N\OCc1csc(N=C=O)n1)c1ccccc1 [(Z)-N-[(2-isocyanato-1,3-thiazol-4-yl)methoxy]-1-(1-methyl-1H-tetrazol-5-yl)-1-phenylmethanimine]	3.13	–	–
